In article PMC9330476 (Toxins, 2022):
Entries after “also recorded” stand apart in the source; their conditions may differ. Bridge positions count the residues as written; N and C are the ends. Ends that are not written are not given here. I, II: the chains in the order shown.

Key:
hα7 nAChR = hα7 nAChR (Homo sapiens, UniProt P36544); format: cell-based
hα4β2 nAChR = hα4β2 nAChR (Homo sapiens, UniProt P17787+P43681); format: cell-based
hα4β2 nAChR, sequence (P43681 29-627 limits assumed): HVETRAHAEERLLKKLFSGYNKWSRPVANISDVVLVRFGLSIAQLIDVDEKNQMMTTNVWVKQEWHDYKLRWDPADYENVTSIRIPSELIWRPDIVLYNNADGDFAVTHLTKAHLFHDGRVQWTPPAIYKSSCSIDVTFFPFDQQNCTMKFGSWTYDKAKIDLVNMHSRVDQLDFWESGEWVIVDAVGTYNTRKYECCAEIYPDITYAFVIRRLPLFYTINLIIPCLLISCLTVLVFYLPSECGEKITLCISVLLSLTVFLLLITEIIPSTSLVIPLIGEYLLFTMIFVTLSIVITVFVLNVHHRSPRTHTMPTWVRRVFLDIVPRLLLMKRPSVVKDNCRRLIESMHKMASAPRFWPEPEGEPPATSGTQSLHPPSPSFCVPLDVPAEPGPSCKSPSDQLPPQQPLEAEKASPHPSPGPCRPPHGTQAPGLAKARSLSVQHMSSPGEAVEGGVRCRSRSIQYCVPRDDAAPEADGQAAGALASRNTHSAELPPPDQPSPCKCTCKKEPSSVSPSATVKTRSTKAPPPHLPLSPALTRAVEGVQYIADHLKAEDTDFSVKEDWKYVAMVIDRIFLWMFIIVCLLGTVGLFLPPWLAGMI
hα4β2 nAChR, sequence (P17787 26-502 limits assumed): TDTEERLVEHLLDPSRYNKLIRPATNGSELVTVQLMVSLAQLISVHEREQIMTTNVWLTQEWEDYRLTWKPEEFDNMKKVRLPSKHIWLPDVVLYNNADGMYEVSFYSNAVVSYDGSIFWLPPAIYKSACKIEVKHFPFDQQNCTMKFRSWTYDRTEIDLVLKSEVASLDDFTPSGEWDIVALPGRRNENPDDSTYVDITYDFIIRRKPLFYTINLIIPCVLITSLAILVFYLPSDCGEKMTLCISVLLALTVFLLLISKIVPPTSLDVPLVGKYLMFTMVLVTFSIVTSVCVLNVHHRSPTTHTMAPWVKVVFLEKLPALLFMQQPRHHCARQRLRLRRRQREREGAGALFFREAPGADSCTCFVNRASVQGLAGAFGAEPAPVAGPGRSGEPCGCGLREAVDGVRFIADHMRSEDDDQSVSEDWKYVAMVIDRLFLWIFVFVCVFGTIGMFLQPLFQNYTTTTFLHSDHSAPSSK

hα7 nAChR, sequence (P36544 23-502 limits assumed): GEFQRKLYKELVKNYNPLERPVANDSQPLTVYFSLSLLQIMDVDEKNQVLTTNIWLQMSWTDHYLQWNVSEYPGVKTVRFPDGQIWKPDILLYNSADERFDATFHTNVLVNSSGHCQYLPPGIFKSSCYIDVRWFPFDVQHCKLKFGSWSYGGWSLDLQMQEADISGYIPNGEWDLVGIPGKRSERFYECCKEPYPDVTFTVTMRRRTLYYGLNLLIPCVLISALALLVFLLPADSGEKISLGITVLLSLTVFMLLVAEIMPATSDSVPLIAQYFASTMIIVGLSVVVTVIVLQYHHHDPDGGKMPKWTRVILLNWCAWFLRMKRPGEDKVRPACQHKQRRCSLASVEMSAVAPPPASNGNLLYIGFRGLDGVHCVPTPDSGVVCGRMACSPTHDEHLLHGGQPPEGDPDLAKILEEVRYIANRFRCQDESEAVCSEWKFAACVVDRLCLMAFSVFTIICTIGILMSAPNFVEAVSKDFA

## I: EARITCQPRGRSKWGRCCLTQMCGNYCCYKHGCRCVYHSWRGHGCSC / II: EARITCQPRGRSKWGRCCLTQMCGNYCCYKHGCRCVYHSWRGHGCSC (disulfide I:6-II:18, I:17-I:27, I:18-II:6, I:23-I:35, I:28-I:45, I:33-I:47, II:17-II:27, II:23-II:35, II:28-II:45, II:33-II:47) [αD-FrXXA]
hα7 nAChR
  dissociation / reversibility on hα7: the slower dissociation was for hα7 subtype (almost irreversible)
hα4β2 nAChR
  dissociation / reversibility on hα4β2: the fastest was for hα4β2 subtype; also recorded: reversible almost entirely within a few minutes of washing
